# PubChem BioAssay (NCI)
# Where “and” joins values, the source holds several entries; their conditions need not be identical. Equal entries are not always repeated.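 Compound exposure: 48 hours, 5 concentrations, 96-well plates. GI50 = concentration required for 50% inhibition of growth. TGI denotes the concentration required for complete inhibition of growth.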
# What was measured:
# Experiment in all cases: NCI tumour cell line growth inhibition, 48 h
# NCI-H522 lung = tested on: NCI-H522 lung
# KM12 colon = tested on: KM12 colon
# NCI/ADR-RES ovarian = tested on: NCI/ADR-RES ovarian
# TK-10 renal = tested on: TK-10 renal
# HL-60(TB) leukemia = tested on: HL-60(TB) leukemia
# HOP-62 NSCLC = tested on: HOP-62 NSCLC
# RXF 393 renal = tested on: RXF 393 renal
# SF-268 CNS = tested on: SF-268 CNS
# COLO 205 colon = tested on: COLO 205 colon
# DMS 273 small cell lung = tested on: DMS 273 small cell lung
# MDA-MB-435 = tested on: MDA-MB-435
# MALME-3M melanoma = tested on: MALME-3M melanoma
# MDA-MB-231 breast = tested on: MDA-MB-231 breast
# MDA-N = tested on: MDA-N
# LXFL 529 NSCLC = tested on: LXFL 529 NSCLC
# U251 CNS = tested on: U251 CNS
# M19-MEL melanoma = tested on: M19-MEL melanoma
# NCI-H23 lung = tested on: NCI-H23 lung
# SNB-78 CNS = tested on: SNB-78 CNS
# UACC-257 melanoma = tested on: UACC-257 melanoma
# HT29 colon = tested on: HT29 colon
# CAKI-1 renal = tested on: CAKI-1 renal
# SK-MEL-28 melanoma = tested on: SK-MEL-28 melanoma
# BT-549 breast = tested on: BT-549 breast
# A549 NSCLC = tested on: A549 NSCLC
# SK-MEL-5 melanoma = tested on: SK-MEL-5 melanoma
# UACC-62 melanoma = tested on: UACC-62 melanoma
# SW-620 colon = tested on: SW-620 colon
# ACHN renal = tested on: ACHN renal
# PC-3 prostate = tested on: PC-3 prostate
# UO-31 renal = tested on: UO-31 renal
# IGROV1 ovarian = tested on: IGROV1 ovarian
# MOLT-4 leukemia = tested on: MOLT-4 leukemia
# MCF7 breast = tested on: MCF7 breast
# OVCAR-8 ovarian = tested on: OVCAR-8 ovarian
# HCT-116 colon = tested on: HCT-116 colon
# OVCAR-5 ovarian = tested on: OVCAR-5 ovarian
# SNB-75 CNS = tested on: SNB-75 CNS
# OVCAR-4 ovarian = tested on: OVCAR-4 ovarian
# SNB-19 CNS = tested on: SNB-19 CNS
# RPMI-8226 leukemia = tested on: RPMI-8226 leukemia
# NCI-H460 lung = tested on: NCI-H460 lung
# EKVX NSCLC = tested on: EKVX NSCLC
# OVCAR-3 ovarian = tested on: OVCAR-3 ovarian
# SK-OV-3 ovarian = tested on: SK-OV-3 ovarian
# NCI-H226 lung = tested on: NCI-H226 lung
# SF-539 CNS = tested on: SF-539 CNS
# CCRF-CEM leukemia = tested on: CCRF-CEM leukemia
# DLD-1 colon = tested on: DLD-1 colon
# 786-0 renal = tested on: 786-0 renal
# SN12C renal = tested on: SN12C renal
# SR leukemia = tested on: SR leukemia
# HOP-18 NSCLC = tested on: HOP-18 NSCLC
# XF 498 CNS = tested on: XF 498 CNS
# DU-145 prostate = tested on: DU-145 prostate
# HCC-2998 colon = tested on: HCC-2998 colon
# T-47D breast = tested on: T-47D breast
# A498 renal = tested on: A498 renal
# K-562 leukemia = tested on: K-562 leukemia
# HS 578T breast = tested on: HS 578T breast
# HOP-92 NSCLC = tested on: HOP-92 NSCLC
# LOX IMVI melanoma = tested on: LOX IMVI melanoma
# SF-295 CNS = tested on: SF-295 CNS
# SK-MEL-2 melanoma = tested on: SK-MEL-2 melanoma
# HCT-15 colon = tested on: HCT-15 colon
# M14 melanoma = tested on: M14 melanoma
# KM20L2 colon = tested on: KM20L2 colon
smiles,measurement,setting,value
O=C1C(c2ccc([N+](=O)[O-])cc2)=C(Cl)C(=O)c2c(O)cccc21,TGI,NCI-H522 lung,21.6 µM
same,TGI,KM12 colon,> 62.6 µM
same,TGI,NCI/ADR-RES ovarian,66.2 µM
same,TGI,TK-10 renal,34.7 µM
same,TGI,HL-60(TB) leukemia,> 100 µM
same,TGI,HOP-62 NSCLC,> 100 µM
same,TGI,RXF 393 renal,29.1 µM
same,TGI,SF-268 CNS,49.8 µM
same,TGI,COLO 205 colon,32.4 µM
same,TGI,DMS 273 small cell lung,> 100 µM
same,TGI,MDA-MB-435,31.9 µM
same,TGI,MALME-3M melanoma,34.8 µM
same,TGI,MDA-MB-231 breast,31.8 µM
same,TGI,MDA-N,34.5 µM
same,TGI,LXFL 529 NSCLC,23.2 µM
same,TGI,U251 CNS,32.6 µM
same,TGI,M19-MEL melanoma,36 µM
same,TGI,NCI-H23 lung,36.6 µM
same,TGI,SNB-78 CNS,63.8 µM
same,TGI,UACC-257 melanoma,32.9 µM
same,TGI,HT29 colon,43.5 µM
same,TGI,CAKI-1 renal,50.2 µM
same,TGI,SK-MEL-28 melanoma,33.9 µM
same,TGI,BT-549 breast,32.1 µM
same,TGI,A549 NSCLC,> 100 µM
same,TGI,SK-MEL-5 melanoma,> 54.8 µM
same,TGI,UACC-62 melanoma,35.6 µM
same,TGI,SW-620 colon,15.5 µM
same,TGI,ACHN renal,33 µM
same,TGI,PC-3 prostate,57.3 µM
same,TGI,UO-31 renal,19.1 µM
same,TGI,IGROV1 ovarian,42.4 µM
same,TGI,MOLT-4 leukemia,> 100 µM
same,TGI,MCF7 breast,37.7 µM
same,TGI,OVCAR-8 ovarian,> 86.4 µM
same,TGI,HCT-116 colon,> 56.6 µM
same,TGI,OVCAR-5 ovarian,> 100 µM
same,TGI,SNB-75 CNS,96.9 µM
same,TGI,OVCAR-4 ovarian,32.1 µM
same,TGI,SNB-19 CNS,49.6 µM
same,TGI,RPMI-8226 leukemia,> 100 µM
same,TGI,NCI-H460 lung,> 100 µM
same,TGI,EKVX NSCLC,46.6 µM
same,TGI,OVCAR-3 ovarian,32.6 µM
same,TGI,SK-OV-3 ovarian,> 100 µM
same,TGI,NCI-H226 lung,> 59.3 µM
same,TGI,SF-539 CNS,39.6 µM
same,TGI,CCRF-CEM leukemia,> 100 µM
same,TGI,DLD-1 colon,25.3 µM
same,TGI,786-0 renal,28.9 µM
same,TGI,SN12C renal,39.9 µM
same,TGI,SR leukemia,> 100 µM
same,TGI,HOP-18 NSCLC,19.6 µM
same,TGI,XF 498 CNS,22.4 µM
same,TGI,DU-145 prostate,42.7 µM
same,TGI,HCC-2998 colon,> 100 µM
same,TGI,T-47D breast,52.6 µM
same,TGI,A498 renal,59.3 µM
same,TGI,K-562 leukemia,> 100 µM
same,TGI,HS 578T breast,65.9 µM
same,TGI,HOP-92 NSCLC,33 µM
same,TGI,LOX IMVI melanoma,32.6 µM
same,TGI,SF-295 CNS,98.9 µM
same,TGI,SK-MEL-2 melanoma,34.3 µM
same,TGI,HCT-15 colon,54 µM
same,TGI,M14 melanoma,46.5 µM
CC1=CC2C(=O)N(c3ccccc3)C(=O)C2CC1n1[nH]c(=O)n(Cc2ccccc2)c1=O (stereo unspecified),TGI,NCI-H522 lung,> 100 µM
same,TGI,KM12 colon,> 100 µM
same,TGI,TK-10 renal,> 100 µM
same,TGI,HL-60(TB) leukemia,> 100 µM
same,TGI,HOP-62 NSCLC,> 100 µM
same,TGI,RXF 393 renal,> 100 µM
same,TGI,SF-268 CNS,> 100 µM
same,TGI,COLO 205 colon,> 100 µM
same,TGI,KM20L2 colon,> 100 µM
same,TGI,DMS 273 small cell lung,> 100 µM
same,TGI,MALME-3M melanoma,> 100 µM
same,TGI,LXFL 529 NSCLC,> 100 µM
same,TGI,U251 CNS,> 100 µM
same,TGI,NCI-H23 lung,> 100 µM
same,TGI,SNB-78 CNS,> 100 µM
same,TGI,UACC-257 melanoma,> 100 µM
same,TGI,HT29 colon,> 100 µM
same,TGI,CAKI-1 renal,> 100 µM
same,TGI,SK-MEL-28 melanoma,> 100 µM
same,TGI,A549 NSCLC,> 100 µM
same,TGI,SK-MEL-5 melanoma,> 100 µM
same,TGI,UACC-62 melanoma,> 100 µM
same,TGI,SW-620 colon,> 100 µM
same,TGI,ACHN renal,> 100 µM
same,TGI,UO-31 renal,> 100 µM
same,TGI,IGROV1 ovarian,> 100 µM
same,TGI,OVCAR-8 ovarian,> 100 µM
same,TGI,HCT-116 colon,> 100 µM
same,TGI,OVCAR-5 ovarian,> 100 µM
same,TGI,SNB-75 CNS,> 100 µM
same,TGI,OVCAR-4 ovarian,> 100 µM
same,TGI,SNB-19 CNS,> 100 µM
same,TGI,NCI-H460 lung,> 100 µM
same,TGI,EKVX NSCLC,> 100 µM
same,TGI,OVCAR-3 ovarian,> 100 µM
same,TGI,SK-OV-3 ovarian,> 100 µM
same,TGI,NCI-H226 lung,> 100 µM
same,TGI,SF-539 CNS,> 100 µM
same,TGI,CCRF-CEM leukemia,> 100 µM
same,TGI,DLD-1 colon,> 100 µM
same,TGI,786-0 renal,> 100 µM
same,TGI,SN12C renal,> 100 µM
same,TGI,SR leukemia,> 100 µM
same,TGI,HOP-18 NSCLC,> 100 µM
same,TGI,XF 498 CNS,> 100 µM
same,TGI,HCC-2998 colon,> 100 µM
same,TGI,A498 renal,> 100 µM
same,TGI,K-562 leukemia,> 100 µM
same,TGI,HOP-92 NSCLC,> 100 µM
same,TGI,LOX IMVI melanoma,> 100 µM
same,TGI,SF-295 CNS,> 100 µM
same,TGI,SK-MEL-2 melanoma,> 100 µM
same,TGI,HCT-15 colon,> 100 µM
same,TGI,M14 melanoma,> 100 µM
COc1ccc(/C(Cl)=C(\CN(C)C)c2ccc(OC)c(OC)c2)cc1OC,TGI,NCI-H522 lung,> 100 µM
same,TGI,KM12 colon,> 100 µM
same,GI50,TK-10 renal,> 27.9 µM
same,TGI,TK-10 renal,> 100 µM
same,TGI,HL-60(TB) leukemia,> 100 µM
same,TGI,HOP-62 NSCLC,> 100 µM
same,TGI,RXF 393 renal,> 28.6 µM
same,TGI,SF-268 CNS,> 100 µM
same,TGI,COLO 205 colon,> 100 µM
same,TGI,KM20L2 colon,> 100 µM
same,TGI,DMS 273 small cell lung,> 100 µM
same,TGI,MALME-3M melanoma,> 100 µM
same,TGI,LXFL 529 NSCLC,> 100 µM
same,TGI,U251 CNS,> 100 µM
same,TGI,M19-MEL melanoma,> 100 µM
same,TGI,NCI-H23 lung,> 100 µM
same,TGI,SNB-78 CNS,97.9 µM and > 100 µM
same,TGI,UACC-257 melanoma,> 100 µM
same,TGI,HT29 colon,> 100 µM
same,TGI,CAKI-1 renal,> 100 µM
same,TGI,SK-MEL-28 melanoma,> 100 µM
same,TGI,A549 NSCLC,> 100 µM
same,TGI,SK-MEL-5 melanoma,> 100 µM
same,TGI,UACC-62 melanoma,> 100 µM
same,TGI,SW-620 colon,> 100 µM
same,TGI,ACHN renal,> 100 µM
same,TGI,UO-31 renal,> 100 µM
same,TGI,IGROV1 ovarian,> 100 µM
same,TGI,MOLT-4 leukemia,> 100 µM
same,TGI,OVCAR-8 ovarian,> 100 µM
same,TGI,HCT-116 colon,> 46.4 µM
same,TGI,OVCAR-5 ovarian,> 100 µM
same,TGI,SNB-75 CNS,> 100 µM
same,TGI,SNB-19 CNS,> 100 µM
same,TGI,RPMI-8226 leukemia,> 100 µM
same,TGI,NCI-H460 lung,> 100 µM
same,TGI,EKVX NSCLC,> 100 µM
same,TGI,OVCAR-3 ovarian,> 100 µM
same,TGI,SK-OV-3 ovarian,> 100 µM
same,TGI,NCI-H226 lung,> 100 µM
same,TGI,SF-539 CNS,> 100 µM
same,TGI,CCRF-CEM leukemia,> 100 µM
same,TGI,DLD-1 colon,> 100 µM
same,TGI,786-0 renal,> 100 µM
same,TGI,SN12C renal,> 100 µM
same,TGI,SR leukemia,> 100 µM
same,TGI,HOP-18 NSCLC,> 100 µM
same,TGI,XF 498 CNS,> 100 µM
same,TGI,HCC-2998 colon,> 100 µM
same,TGI,A498 renal,> 100 µM
same,TGI,K-562 leukemia,> 100 µM
same,TGI,LOX IMVI melanoma,> 100 µM
same,TGI,SF-295 CNS,> 100 µM
same,TGI,SK-MEL-2 melanoma,> 100 µM
same,TGI,HCT-15 colon,> 100 µM
same,TGI,M14 melanoma,> 100 µM
